These results are taken from ChEMBL document CHEMBL1156987, “Novel azalides derived from 16-membered macrolides. III. Azalides modified at the C-15 and 4'' positions: Improved antibacterial activities” (Bioorg Med Chem, 2010).

Converted amounts (≈) assume the structure as drawn.

Data set [1] deals with Streptococcus pneumoniae. The experiment in a line: Antibacterial activity against Streptococcus pneumoniae 8 expressing inducible ermB methylase after 20 hrs by agar dilution method. It counts as functional. The following applies: Streptococcus pneumoniae, 8, 20 h.
In data set [2] the test system is Streptococcus pneumoniae. The experiment in a line: Antibacterial activity against Streptococcus pneumoniae 7 expressing constitutive ermB methylase after 20 hrs by agar dilution method. The data set is classed as functional. Conditions: Streptococcus pneumoniae, 7, 20 h.
Data set [3] deals with Streptococcus pyogenes. The experiment in a line: Antibacterial activity against Streptococcus pyogenes Cook after 20 hrs by agar dilution method. The data set is classed as functional.
Data set [4] deals with Streptococcus pneumoniae. The experiment in a line: Antibacterial activity against Streptococcus pneumoniae DP1 type 1 after 20 hrs by agar dilution method. The data set is classed as functional. The following applies: DP1 type1, 20 h.
In data set [5] the test system is Streptococcus pneumoniae. The data set can be described thus: Antibacterial activity against Streptococcus pneumoniae 11 expressing mefA efflux pump after 20 hrs by agar dilution method. It counts as functional. The following applies: Streptococcus pneumoniae, 11, 20 h.
Data set [6] has as its system Haemophilus influenzae. The data set can be described thus: Antibacterial activity against Haemophilus influenzae 3 after 20 hrs by agar dilution method. It counts as functional. The following applies: Haemophilus influenzae, 3, 20 h.
For a further data set, the system named is Staphylococcus aureus. The data set can be described thus: Antibacterial activity against Staphylococcus aureus 209P JC1 after 20 hrs by agar dilution method. The data set is classed as functional. Conditions: 209P JC1, 20 h.
Data set [7] deals with Streptococcus pyogenes. The experiment in a line: Antibacterial activity against Streptococcus pyogenes 2 expressing constitutive ermB methylase after 20 hrs by agar dilution method. It counts as functional. Conditions: Streptococcus pyogenes, 2, 20 h.
Data set [8] concerns Streptococcus pneumoniae. The data set can be described thus: Antibacterial activity against Streptococcus pneumoniae 5 expressing constitutive ermB methylase after 20 hrs by agar dilution method. The data set is classed as functional. Conditions: Streptococcus pneumoniae, 5, 20 h.
The test system of data set [9] is Haemophilus influenzae. The data set can be described thus: Antibacterial activity against Haemophilus influenzae 2 after 20 hrs by agar dilution method. It counts as functional. Conditions: Haemophilus influenzae, 2, 20 h.
In data set [10] the test system is Streptococcus pneumoniae. The data set can be described thus: Antibacterial activity against Streptococcus pneumoniae 6 expressing constitutive ermB methylase and mefA after 20 hrs by agar dilution method. The data set is classed as functional. Conditions: Streptococcus pneumoniae, 6, 20 h.
Data set [11] relates to Streptococcus pyogenes. The experiment in a line: Antibacterial activity against Streptococcus pyogenes 3 expressing mefA efflux pump after 20 hrs by agar dilution method. It counts as functional. The following applies: Streptococcus pyogenes, 3, 20 h.
Data set [12] relates to Streptococcus pneumoniae. The experiment in a line: Antibacterial activity against Streptococcus pneumoniae 9 expressing inducible ermB methylase after 20 hrs by agar dilution method. It counts as functional. The following applies: Streptococcus pneumoniae, 9, 20 h.
The subject of data set [13] is Streptococcus pneumoniae. The data set can be described thus: Antibacterial activity against Streptococcus pneumoniae 10 expressing mefA efflux pump after 20 hrs by agar dilution method. The data set is classed as functional. Conditions: Streptococcus pneumoniae, 10, 20 h.
The subject of data set [14] is Haemophilus influenzae. The data set can be described thus: Antibacterial activity against Haemophilus influenzae 1 after 20 hrs by agar dilution method. It counts as functional. The following applies: Haemophilus influenzae, 1, 20 h.
Data set [15] can be described thus: Metabolic stability at human liver S9 fraction assessed as compound remaining after 1 hr. It counts as ADME, subcellular. Conditions: read-out: Stability.

Consider `CCNC(=O)O[C@H]1[C@H](C)O[C@@H](O[C@H]2[C@H](N(C)C)[C@@H](O)[C@H](O[C@H]3[C@@H](CC=O)C[C@@H](C)[C@@H](O)CN(C)CCC[C@H](C/C=C/c4cncc5ccccc45)OC(=O)C[C@@H](OC(=O)CC)[C@@H]3OC)O[C@@H]2C)C[C@@]1(C)OC(=O)CC`, for which the MIC with Streptococcus pneumoniae [1] was 0.13 µg/mL (≈ 0.123 µM); in the data set with Streptococcus pneumoniae [2], 8 µg/mL (≈ 7.57 µM); against Streptococcus pyogenes [3] it was 0.06 µg/mL (≈ 0.0567 µM); in the data set with Streptococcus pneumoniae [4] it was 0.015 µg/mL (≈ 0.0142 µM); in the data set with Streptococcus pneumoniae [5], 0.03 µg/mL (≈ 0.0284 µM); in the data set with Haemophilus influenzae [6], 16 µg/mL (≈ 15.1 µM). Besides, the MIC in the data set on Staphylococcus aureus is 0.5 µg/mL (≈ 0.473 µM); with Streptococcus pyogenes [7], 128 µg/mL (≈ 121 µM); against Streptococcus pneumoniae [8] it was 8 µg/mL (≈ 7.57 µM); in the data set on Haemophilus influenzae [9], 16 µg/mL (≈ 15.1 µM); in the data set on Streptococcus pneumoniae [10], 8 µg/mL (≈ 7.57 µM); against Streptococcus pyogenes [11], 0.25 µg/mL (≈ 0.236 µM). Besides, the MIC in the data set on Streptococcus pneumoniae [12] was 0.25 µg/mL (≈ 0.236 µM); in the data set on Streptococcus pneumoniae [13] it was 0.03 µg/mL (≈ 0.0284 µM); in the data set with Haemophilus influenzae [14] it was 8 µg/mL (≈ 7.57 µM).

`CCNC(=O)O[C@H]1[C@H](C)O[C@@H](O[C@H]2[C@H](N(C)C)[C@@H](O)[C@H](O[C@H]3[C@@H](CC=O)C[C@@H](C)[C@@H](O)CN(C)CCC[C@H](C/C=C/c4ccc5ccccc5c4)OC(=O)C[C@@H](OC(=O)CC)[C@@H]3OC)O[C@@H]2C)C[C@@]1(C)OC(=O)CC`: the MIC against Streptococcus pneumoniae [1] stood at 0.5 µg/mL (≈ 0.473 µM); against Streptococcus pneumoniae [2], 32 µg/mL (≈ 30.3 µM); in the data set with Streptococcus pyogenes [3], 0.25 µg/mL (≈ 0.237 µM); against Streptococcus pneumoniae [4], 0.06 µg/mL (≈ 0.0568 µM); in the data set on Streptococcus pneumoniae [5], 0.13 µg/mL (≈ 0.123 µM); against Haemophilus influenzae [6], 32 µg/mL (≈ 30.3 µM). The MIC is 2 µg/mL (≈ 1.89 µM) against Staphylococcus aureus; 16 µg/mL (≈ 15.1 µM) in the data set on Streptococcus pyogenes [7]; 16 µg/mL (≈ 15.1 µM) in the data set with Streptococcus pneumoniae [8]; 16 µg/mL (≈ 15.1 µM) in the data set on Haemophilus influenzae [9]; 32 µg/mL (≈ 30.3 µM) with Streptococcus pneumoniae [10]; 0.5 µg/mL (≈ 0.473 µM) against Streptococcus pyogenes [11]. The figures for the MIC in the data set with Streptococcus pneumoniae [12], in the data set with Streptococcus pneumoniae [13] and against Haemophilus influenzae [14] were 0.5 µg/mL (≈ 0.473 µM), 0.13 µg/mL (≈ 0.123 µM) and 16 µg/mL (≈ 15.1 µM), respectively. For the same compound, the remaining at 1 h in data set [15] came to 82%.

Take `CCNC(=O)O[C@H]1[C@H](C)O[C@@H](O[C@H]2[C@H](N(C)C)[C@@H](O)[C@H](O[C@H]3[C@@H](CC=O)C[C@@H](C)[C@@H](O)CN(C)CCC[C@H](C/C=C/c4cnc5ccccc5c4)OC(=O)C[C@@H](O)[C@@H]3OC)O[C@@H]2C)C[C@@]1(C)OC(=O)CC`: the MIC is 0.06 µg/mL (≈ 0.0599 µM) against Streptococcus pneumoniae [1]; 4 µg/mL (≈ 4 µM) in the data set with Streptococcus pneumoniae [2]; 0.06 µg/mL (≈ 0.0599 µM) with Streptococcus pyogenes [3]; < 0.008 µg/mL against Streptococcus pneumoniae [4]; 0.015 µg/mL (≈ 0.015 µM) against Streptococcus pneumoniae [5]; 4 µg/mL (≈ 4 µM) in the data set on Haemophilus influenzae [6]. For the same compound, the MIC in the data set with Staphylococcus aureus is 0.25 µg/mL (≈ 0.25 µM); with Streptococcus pyogenes [7] it was 8 µg/mL (≈ 7.99 µM); against Streptococcus pneumoniae [8] it was 4 µg/mL (≈ 4 µM); in the data set with Haemophilus influenzae [9], 4 µg/mL (≈ 4 µM); in the data set with Streptococcus pneumoniae [10] it was 4 µg/mL (≈ 4 µM); with Streptococcus pyogenes [11], 0.06 µg/mL (≈ 0.0599 µM). Further, the MIC against Streptococcus pneumoniae [12] came out at 0.06 µg/mL (≈ 0.0599 µM); against Streptococcus pneumoniae [13] it was 0.015 µg/mL (≈ 0.015 µM); in the data set with Haemophilus influenzae [14], 2 µg/mL (≈ 2 µM).

Regarding `CCC(=O)O[C@@H]1CC(=O)O[C@@H](C/C=C/c2cnc3ccccc3c2)CCCN(C)C[C@H](O)[C@H](C)C[C@H](CC=O)[C@H](O[C@@H]2O[C@H](C)[C@@H](O[C@H]3C[C@@](C)(OC(=O)CC)[C@@H](OC(=O)NCCO)[C@H](C)O3)[C@H](N(C)C)[C@H]2O)[C@H]1OC`, the MIC came out at 0.25 µg/mL (≈ 0.233 µM) with Streptococcus pneumoniae [1]; 32 µg/mL (≈ 29.8 µM) against Streptococcus pneumoniae [2]; 0.06 µg/mL (≈ 0.0559 µM) against Streptococcus pyogenes [3]; 0.015 µg/mL (≈ 0.014 µM) against Streptococcus pneumoniae [4]; 0.015 µg/mL (≈ 0.014 µM) against Streptococcus pneumoniae [5]; 16 µg/mL (≈ 14.9 µM) against Haemophilus influenzae [6]. The MIC against Staphylococcus aureus was 0.5 µg/mL (≈ 0.466 µM); in the data set with Streptococcus pyogenes [7], > 32 µg/mL; in the data set with Streptococcus pneumoniae [8], > 32 µg/mL; against Haemophilus influenzae [9], 16 µg/mL (≈ 14.9 µM); against Streptococcus pneumoniae [10], 32 µg/mL (≈ 29.8 µM); against Streptococcus pyogenes [11] it was 0.13 µg/mL (≈ 0.121 µM). Further, the MIC in the data set with Streptococcus pneumoniae [12] is 0.5 µg/mL (≈ 0.466 µM); against Streptococcus pneumoniae [13], 0.015 µg/mL (≈ 0.014 µM); against Haemophilus influenzae [14] it was 4 µg/mL (≈ 3.73 µM).

On to `CCC(=O)O[C@@H]1CC(=O)O[C@@H](C/C=C/c2cnc3ccccc3c2)CCCN(C)C[C@H](O)[C@H](C)C[C@H](CC=O)[C@H](O[C@@H]2O[C@H](C)[C@@H](O[C@H]3C[C@@](C)(OC(=O)CC)[C@@H](OC(=O)NC(C)C)[C@H](C)O3)[C@H](N(C)C)[C@H]2O)[C@H]1OC`, for which the MIC stood at 0.25 µg/mL (≈ 0.233 µM) in the data set with Streptococcus pneumoniae [1]; 16 µg/mL (≈ 14.9 µM) in the data set with Streptococcus pneumoniae [2]; 0.13 µg/mL (≈ 0.121 µM) against Streptococcus pyogenes [3]; 0.03 µg/mL (≈ 0.028 µM) in the data set on Streptococcus pneumoniae [4]; 0.13 µg/mL (≈ 0.121 µM) in the data set with Streptococcus pneumoniae [5]; 32 µg/mL (≈ 29.9 µM) against Haemophilus influenzae [6]. The MIC in the data set on Staphylococcus aureus was 0.5 µg/mL (≈ 0.467 µM); with Streptococcus pyogenes [7], 32 µg/mL (≈ 29.9 µM); in the data set on Streptococcus pneumoniae [8], 16 µg/mL (≈ 14.9 µM); with Haemophilus influenzae [9] it was 32 µg/mL (≈ 29.9 µM); against Streptococcus pneumoniae [10], 16 µg/mL (≈ 14.9 µM); against Streptococcus pyogenes [11], 0.25 µg/mL (≈ 0.233 µM). Further, the MIC against Streptococcus pneumoniae [12] is 0.25 µg/mL (≈ 0.233 µM); against Streptococcus pneumoniae [13], 0.06 µg/mL (≈ 0.056 µM); against Haemophilus influenzae [14], 8 µg/mL (≈ 7.47 µM).
